What was measured:
Format in all cases: cell-based
[1] = tested on: HIV-1CH58TF; test: Virus neutralization in TZM-bl assay; settings: Human immunodeficiency virus 1; TZM-bl cells; read-out: IC50, inhibition of HIV-1CH58TF infection
Description: (§1) To evaluate the direct virus-neutralizing ability of the analogs, I, HIV-1CH58TF was incubated with indicated amounts of different compounds or DMSO for 1 hour at 37° C., then added to TZM-bl cells. After incubation for 48 h at 37° C., luciferase activity was measured. Relative infectivity was calculated as the percentage of the value seen in the absence of compound. To measure the ability of (S)-MCG-IV-210 to sensitize viral particles to neutralization by otherwise non-neutralizing 17b (FIG. 15F), HIV-1CH58TF was incubated with the indicated amounts of 17b in the presence of 0.5 μM (+)-BNM-III-170, 20 μM (S)-MCG-IV-210 or DMSO for 1 hour at 37° C., then added to TZM-bl cells. After incubation for 48 h at 37° C., luciferase activity was measured.
As a positive control, (+)-BNM-III-170 was used, which has been reported to inhibit HIV-1 infection at low micromolar concentrations. See, Melillo, ACS Med Chem Lett 7:330-334. […] While all tested MCG analogs also neutralized HIV-1CH58TF, they did so with only modest potency (FIG. 15E).

[2] = tested on: primary CD4 T cells infected with HIV-1CH58TF; test: Cell surface staining with A32-AF647 (State 2A, cluster A exposure); settings: 50 μM compound
Description: FIGS. 14A-14D show the data for the cell surface staining with A32-AF647. Cells were then incubated with A32-AF647 together with 5 μg/ml 17b (FIG. 14A, FIG. 14B, 14C) or 1:1000 diluted HIV+ plasma from infected individuals (FIG. 14D) in the presence of DMSO, 50 μM (+)-BNM-III-170 or 50 μM (S)-MCG-IV-210 at 37° C. Mean fluorescence intensity (MFI) of A32-AF647 was measured by flow cytometry. FIG. 14E is a bar graph showing data for the VBE assay, comparing the binding capacity of different Abs, the relative ratio of the luciferase activity to the luciferase activity of 2G12. Data shown are the mean±SD of at least three independent experiments. Statistical significance was evaluated using Mann-Whitney unpaired t test (FIG. 14C) or Wilcoxon paired t test (FIG. 14D) (*, P<0.05; ns, not significant.).
To evaluate whether (S)-MCG-IV-210 was able to stabilize State 2A, primary CD4+ T cells were infected with the primary CH58 transmitted/founder (CH58 TF) virus and evaluated the exposure of the cluster A region with an Alexa-Fluor 647-conjugated A32 (A32-AF647) antibody in the presence or absence of CD4mc and the CoRBS 17b Ab, as reported. See, Richard, 2016, EbioMedicine doi:10.1016/j.ebiom.2016.09.004. […] Mean fluorescence intensity (MFI) of A32-AF647 was measured by flow cytometry. […]

[3] = tested on: HIV-1CH58TF Env on virions; test: Virus-based ELISA (VBE) virus capture assay
[4] = tested on: uninfected bystander CD4+ T cells; test: Uninfected bystander CD4+ T cell recognition and ADCC; settings: 50 μM
Description: FIG. 17A is a dot plot showing the ability of HIV+plasma to recognize uninfected bystander cells in the presence of 50 μM (+)-BNM-III-170 or (S)-MCG-IV-210 was evaluated by FACS. FIG. 17B is a dot showing the use of the uninfected eFluor 450+ cells as target cells for ADCC with autologous PBMC and 5 HIV+ plasma in the presence of 50 μM (+)-BNM-III-170 or (S)-MCG-IV-210. Statistical significance was evaluated using a paired t test (*, P<0.05; ****, P<0.0001; ns, not significant).
The capacity of (S)-MCG-IV-210 to protect uninfected bystander CD4+ T cells from ADCC responses was evaluated. Briefly, primary CD4+ T cells were infected with the NL4-3.ADA.GFP WT virus. The cell proliferation dye eFluor-450 was used to stain uninfected autologous CD4+ T cells, which were then added to the infected cells (eFluor-450-cells) and co-cultured for 72 h. The ability of HIV+ plasma to recognize uninfected bystander cells in the presence of 50 μM (+)-BNM-III-170 or (S)-MCG-IV-210 was evaluated by FACS (FIG. 17A). These uninfected eFluor 450+ cells were also used as target cells for ADCC with autologous PBMC and 5 HIV+ plasma in the presence of 50 μM (+)-BNM-III-170 or (S)-MCG-IV-210 (FIG. 17B).

[5] = tested on: HIV-1CH58TF; test: Sensitization of viral particles to neutralization by 17b (TZM-bl); settings: sub-inhibitory concentrations (20 μM (S)-MCG-IV-210)
Description: as §1
Another well-documented antiviral property of CD4mc is their capacity to sensitize viral particles to neutralization by otherwise non-neutralizing antibodies. See, Madani, 2018, Nat. Commun. 9:2363; Madani, 2014, J. Virol. 88:6542-6555; and Madani, 2016, J. Virol., 90:5031-5046. (S)-MCG-IV-210 was tested to determine if this compound shared this property.

Structure (SMILES): NCCNC(=O)N1CCC[C@H](C(=O)Nc2ccc(Cl)c(F)c2)C1 [(S)-MCG-IV-210]
- IC50 [1]: 6.97 µM
- recognition of infected cells by A32-AF647 with addition of 17b ([2]; 5 μg/ml 17b, 37° C.): significantly enhanced
- binding of infected cells by A32-AF647 in the presence of HIV+ plasma ([2]; 1:1000 diluted HIV+ plasma): significantly enhanced binding
- 17b-mediated capture of virions ([3]; 50 μM compound): dramatic increase
- virion capture by the A32 and C11 Cluster A antibodies ([3]; 50 μM compound in combination with 5 μg/ml 17b): permit virion capture
- recognition of bystander cells by HIV+ plasma ([4]; added at the time of co-culture): significantly decreased
- ADCC-mediated killing of uninfected bystander CD4+ T cells ([4]; autologous PBMC and 5 HIV+ plasma): protecting uninfected bystander CD4+ T cells from ADCC-mediating killing
- neutralization by 17b of viral particles sensitized with compound [5]: potently neutralized

Source: patent US12286401B2, “Small molecules that sensitize HIV-1 infected cells to antibody dependent cellular cytotoxicity” (THE TRUSTEES OF THE UNIVERSITY OF PENNSYLVANIA, priority 2018, dated 2025)
